Assay results taken from publication PMC4865845, “A human genome-wide loss-of-function screen identifies effective chikungunya antiviral drugs” (Nature Communications, 2016).

tested on: CHIKV; assay type: cell-based, chikungunya virus

In order of falling Score_si1:
1. Hs_PGD_1 (TAGAAGTGTATTCCTAGGAAA; chemistry not given here)  3.09
2. Hs_FLJ20530_2 (sense TTGACTTATCTTCATCATAAA; chemistry not given here)  2.95
3. Hs_PHF10_5 (ATGGCAGTGTATGGAATGTAA; chemistry not given here)  2.93
4. Hs_LOC283377_3 (sense CAGGCCTTTCTCAGACTGTAT; chemistry not given here)  2.72
5. Hs_GNB2L1_2 (sense CAGATTGTCTCTGGATCTCGA; chemistry not given here)  2.65
6. Hs_WIG1_1 (CAGCATTTAGAGAGCAAGCAA; chemistry not given here)  2.55
7. Hs_NDUFA2_2 (TCCACTGAGGATTAAGAGCAA; chemistry not given here)  2.51
8. Hs_ANKRD9_1 (AAGAGAGGTATGGGACCTGAA; chemistry not given here)  2.5
9. Hs_SLC6A19_2 (sense CTCGGTGATTGTGTCCATCAT; chemistry not given here)  2.5
10. Hs_NPEPL1_3 (CTGCAATGAGATGAACACCGA; chemistry not given here)  2.35
11. Hs_EP400_1 (CAGAATGATTTGGACATTGAA; chemistry not given here)  2.29
12. Hs_KIAA1012_2 (sense CAGGGTTGCTATTTACTTAAA; chemistry not given here)  2.22
13. Hs_RXRA_1 (sense TTCGTGTAAGCAAGTACATAA; chemistry not given here)  2.2
14. Hs_FCGRT_1 (CTCGTCGTCACTAACAGTCAA; chemistry not given here)  2.15
15. Hs_GFRA4_2 (sense CAGGTCAGAGACCATCCAGAA; chemistry not given here)  1.82
16. Hs_RAB3D_1 (sense CAGGCCCTGTTTAGCTGTTTA; chemistry not given here)  1.76
17. Hs_KAZALD1_2 (sense ACAGGGCTAGGCACCAATAAA; chemistry not given here)  1.74
18. s322 (GGTTGTCCTTGAGTAATAA; chemistry not given here)  1.71
19. Hs_SEC61B_1 (sense TTTAATTCACTTATACTGAAA; chemistry not given here)  1.55
20. Hs_ITGB4BP_3 (sense CAGGGAGACAGAAGAAATTCT; chemistry not given here)  1.54
21. Hs_AQP3_3 (CTGGATCAAGCTGCCCATCTA; chemistry not given here)  1.31
22. Hs_MGC21830_1 (CCGGAGACAGCGGCTGATTTA; chemistry not given here) [reference compound]  -1.05
23. Hs_ATF1_8 (CTGCATCAGGAGATATGCAAA; chemistry not given here) [reference compound]  -1.45
24. Hs_TUSC1_1 (TCCCTGTACATCTAATATATA; chemistry not given here) [reference compound]  -1.75
25. Hs_CGI-12_1 (sense AAGATGTTAACTGCAAATAAA; chemistry not given here) [reference compound]  -2.28

In order of rising Score_si3:
1. Hs_UBE2C_4 (CAGGACCATTCTGCTCTCCAT; chemistry not given here) [reference compound]  -0.75
2. s9339 (TCACTTCTAGTTTTACTTT; chemistry not given here) [reference compound]  -0.69
3. Hs_GRB10_4 (sense GTGAATTGTTGGAGAATGTAA; chemistry not given here)  0.73
4. s19990 (sense GGCTCTGACTACAAACTGA; chemistry not given here)  0.89
5. s37918 (GAAGAGCACAAGAACCAGA; chemistry not given here)  0.93
6. s16997 (CAGCTTCCATTATGCCCAA; chemistry not given here)  0.97
7. Hs_F25965_2 (ACCAGCTTCGTTACTCAGAAA; chemistry not given here)  1.05
8. Hs_XRN1_1 (CAGGTCGTAAATATCAAATAA; chemistry not given here)  1.08
9. s17802 (GGAGTTAAACATAGATGTA; chemistry not given here)  1.28
10. Hs_CHD8_2 (sense AAGGATAAGAGGATACATCAA; chemistry not given here)  1.53
11. s32096 (GTTCCAGTATGGGAATTAT; chemistry not given here)  1.63
12. s18271 (CCTCTTCACTAAGACCCAT; chemistry not given here)  1.67
13. s5030 (sense GGTATGCGACGGGAAAGTA; chemistry not given here)  1.75
14. s7005 (sense AGAAAAATCTCAAGGAAAA; chemistry not given here)  1.86
15. s16633 (CAACCACAATGTTCGTAAA; chemistry not given here)  1.99
16. Hs_EEF1A1_1 (CTGGTTAATGATAACAATGCA; chemistry not given here)  2.24

In order of rising Score_si4:
1. s6350 (sense GCCCATATACATTCTGCAA; chemistry not given here) [reference compound]  -0.73
2. s36692 (GGCTATTGATTGTCCACAT; chemistry not given here) [reference compound]  -0.43
3. s3146 (GACCATGGATAATAAGAAA; chemistry not given here)  -0.15
4. s35330 (CGGTGACTATGAAAGAAAT; chemistry not given here)  0.15
5. s19040 (sense GTACATAACATCAATTTCA; chemistry not given here)  0.32
6. Hs_PEX19_3 (CCCATTCAAGATTGTGCCATA; chemistry not given here)  0.41
7. Hs_FLJ31164_2 (sense CCAGCTGAGCACCCGAATAAA; chemistry not given here)  0.41
8. Hs_HMGA1L4_2 (sense CTGGCTGGATGAAGACAGTAA; chemistry not given here)  0.45
9. Hs_GRB10_6 (sense CTAGATGACGGGAACACCAAA; chemistry not given here)  0.5
10. Hs_TGIF_4 (sense TACCACTGTGACTGCATTGAA; chemistry not given here)  0.65
11. Hs_MAP3K14_5 (CACATGCATGTGACTCCTCAA; chemistry not given here)  0.74
12. s8290 (sense GGTGCTAACCGGATAGTAT; chemistry not given here)  0.74
13. Hs_DLD_2 (CCCACTTATTCAAACAGAATA; chemistry not given here)  0.87
14. Hs_NRD1_3 (CAAGCAATACCGATACATCAA; chemistry not given here)  0.87
15. s11517 (sense GCGAAGTGTTTGTAAATCA; chemistry not given here)  1.19
16. Hs_IRAK1_5 (sense CCGGGCAATTCAGTTTCTACA; chemistry not given here)  1.36
17. s3625 (CAGTGAAGCTAGAATCTCA; chemistry not given here)  1.54
18. s3113 (GGCGAGAGGGTATCAAGTA; chemistry not given here)  1.79
19. s922 (CATTAACATTGTTCGCAAA; chemistry not given here)  1.81

In order of falling Score_si2:
1. Hs_GPSN2_1 (sense CTGGATCGGTTTCGCCATCAT; chemistry not given here)  2.41
2. s14674 (sense GTATGAAGGAGGTATCTTT; chemistry not given here)  2.12
3. s3626 (GAATTTGCGATGTACTTAA; chemistry not given here)  1.98
4. Hs_NUDT1_4 (CCGGGTTTCATCTGGAATTAA; chemistry not given here)  1.96
5. Hs_GLTSCR2_4 (sense CAAGTTCAAACGCAAGTACAA; chemistry not given here)  1.95
6. s31191 (GATAATCAGTTCAACTAAA; chemistry not given here)  1.84
7. Hs_RRBP1_1 (sense CACGTAGAGGATGGTGACATA; chemistry not given here)  1.82
8. s35331 (GCAGGTAATCTCTATACTA; chemistry not given here)  1.81
9. s37917 (GCCTCAGCTCAAACTCAAA; chemistry not given here)  1.72
10. Hs_CHD8_1 (sense CAGGAGGTTATTGGAGACCAA; chemistry not given here)  1.61
11. s13806 (sense TCATCACCGTGTCCAATCA; chemistry not given here)  1.6
12. Hs_KIAA0674_2 (sense CCCGGCAACATAACACTGAAA; chemistry not given here)  1.52
13. s16996 (CAACATTGGTGGGAATGCA; chemistry not given here)  1.51
14. s194476 (sense GCATGCTGCTGGCAGATCA; chemistry not given here)  1.47
15. s37715 (CCGGAGAACCTGAAACTCA; chemistry not given here)  1.43
16. Hs_FCGRT_2 (AAGGATGTAAATGTGATTCCA; chemistry not given here)  1.36
17. Hs_CAMKK2_7 (sense CTAGCTGATTGTTGTGGTCAA; chemistry not given here)  1.31
18. s11587 (sense CAGGTCACATTGTTCCTGA; chemistry not given here)  1.27
19. s6126 (sense GAATGCTCCTTTACCAGAA; chemistry not given here)  0.75
20. Hs_MGC21830_2 (CAGCTGGGCGGTGCTGTTCGA; chemistry not given here) [reference compound]  -1.02
21. Hs_RARSL_6 (sense TAGATCGAATGGACAAGTATA; chemistry not given here) [reference compound]  -1.49
22. Hs_SDFR1_10 (sense ACAGGTATATACAGCATATAA; chemistry not given here) [reference compound]  -2.32
